Activity, inhibition and IC50 data for 1 compound are collected here from ChEMBL document CHEMBL4610097, “Daphnane Diterpenoids from Daphne genkwa Inhibit PI3K/Akt/mTOR Signaling and Induce Cell Cycle Arrest and Apoptosis in Human Colon Cancer Cells” (J Nat Prod, 2020).

Structures are written as SMILES. The source made the active and inactive calls. No cut-off for these calls is given here.

For data set [1], the system named is SW-620. Briefly: Induction of apoptosis in human SW620 cells assessed as increase in Bax/Bcl2 ratio at 0.74 to 11.84 uM after 24 hrs by Western blot analysis. It is filed as functional, cell-based. In general terms: Immunoblotting shows a protein as a band on a membrane.
Data set [2] has as its system SW-620. Briefly: Induction of cell cycle arrest in human SW620 cells assessed as accumulation at S phase at 11.84 uM after 24 hrs by propidium iodide staining-based flow cytometric analysis (reference value: 23.83%). It is filed as functional.
The test system of data set [3] is SW-620. Briefly: Induction of cell cycle arrest in human SW620 cells assessed as accumulation at G0/G1 phase at 2.96 uM after 24 hrs by propidium iodide staining-based flow cytometric analysis (reference value: 56.11%). It is filed as functional. On the technique in general: In flow cytometry, cells or beads pass a laser one at a time.
A short description of data set [4]: Inhibition of PI3K/Akt/mTOR signalling pathway in human SW620 cells assessed as reduction in Akt phosphorylation at 0.74 to 11.84 uM after 24 hrs by Western blot analysis. The settings on record: SW-620. It is filed as cell-based.
Data set [5] deals with SW-620. Briefly: Induction of apoptosis in human SW620 cells assessed as late apoptotic cells at 5.92 uM after 24 hrs by annexin V/propidium iodide staining-based flow cytometric analysis (reference value: 2.40%). It is filed as functional.
Data set [6] relates to SW-620. Briefly: Induction of apoptosis in human SW620 cells assessed as necrotic cells at 0.74 uM after 24 hrs by annexin V/propidium iodide staining-based flow cytometric analysis (reference value: 0.30%). It is filed as functional.
Data set [7] deals with SW-620. Briefly: Induction of apoptosis in human SW620 cells assessed as necrotic cells at 5.92 uM after 24 hrs by annexin V/propidium iodide staining-based flow cytometric analysis (reference value: 0.30%). In kind it is functional.
The test system of data set [8] is SW-620. Briefly: Induction of cell cycle arrest in human SW620 cells assessed as accumulation at S phase at 2.96 uM after 24 hrs by propidium iodide staining-based flow cytometric analysis (reference value: 23.83%). In kind it is functional.
In data set [9] the test system is SW-620. Briefly: Induction of apoptosis in human SW620 cells assessed as appearance of apoptotic bodies at 11.84 uM after 24 hrs by acridine orange/propidium iodide staining based microscopic analysis. It is filed as functional, cell-based.
For data set [10], the system named is SW-620. Briefly: Cytotoxicity against human SW620 cells after 24 hrs by MTT assay. As to conditions: SW-620, 24 h. It is filed as functional, cell-based.
In data set [11] the test system is SW-620. Briefly: Induction of apoptosis in human SW620 cells assessed as increase in cleaved caspase-9 at 0.74 to 11.84 uM after 24 hrs by Western blot analysis. It is filed as functional, cell-based.
Data set [12] has as its system SW-620. Briefly: Induction of apoptosis in human SW620 cells assessed as late apoptotic cells at 11.84 uM after 24 hrs by annexin V/propidium iodide staining-based flow cytometric analysis (reference value: 2.40%). It is filed as functional.
Data set [13] relates to SW-620. Briefly: Induction of cell cycle arrest in human SW620 cells assessed as accumulation at G0/G1 phase at 0.74 uM after 24 hrs by propidium iodide staining-based flow cytometric analysis (reference value: 56.11%). In kind it is functional.
Data set [14] has as its system SW-620. Briefly: Effect on mTOR expression in human SW620 cells at 0.74 to 11.84 uM after 24 hrs by Western blot analysis. It is filed as cell-based. As to conditions: sw-620, 24 h.
The subject of data set [15] is SW-620. Briefly: Downregulation of PI3K p85 expression in human SW620 cells at 0.74 to 11.84 uM after 24 hrs by Western blot analysis. It is filed as functional, cell-based.

As a reminder, the IC50 is the concentration that gives 50% inhibition. A low value points to greater potency in that assay. Consider `C=C(C)[C@@]12O[C@@]3(/C=C/C=C/CCCCC)O[C@@H]1[C@@H]1[C@H](O)[C@@](O)(CO)[C@@H](O)[C@]4(O)C(=O)C(C)=C[C@H]4[C@@]1(O3)[C@H](C)[C@H]2OC(=O)c1ccccc1`, for which the outcome in the data set on SW-620 [1], in the data set with SW-620 [9], in the data set with SW-620 [11] and with SW-620 [15] was Active. Moreover, the Activity stood at 9.49% with SW-620 [2]; 82.07% in the data set with SW-620 [3]; 58.5% in the data set with SW-620 [5]; 0.1% in the data set with SW-620 [6]; 0.25% in the data set on SW-620 [7]; 12.76% with SW-620 [8]. In addition, the Activity is 86.3% in the data set with SW-620 [12], 76.93% with SW-620 [13] and “Non-Toxic” in the data set on SW-620 [14]. In addition, the inhibition entry in data set [4] is “Active”. In the data set on SW-620 [10], this compound registered an IC50 of 3000 nM.
